# Test results as given in patent US4603145A, “Antiatherosclerotic diphenyl alkanamides” (American Cyanamid Company, priority 1983, dated 1986).
# Molecular target: T1, fatty acyl CoA:cholesterol acyl transferase (ACAT) (Rattus norvegicus, UniProt O70536)
# T1 construct: The supernatant, containing the microsomal fraction, served as the source of the cholesterol-esterifying enzyme; from tissue; host or cells: rat adrenals (supernatant of homogenate, 1,000 x g, containing the microsomal fraction)
# T1 sequence (O70536 1-545): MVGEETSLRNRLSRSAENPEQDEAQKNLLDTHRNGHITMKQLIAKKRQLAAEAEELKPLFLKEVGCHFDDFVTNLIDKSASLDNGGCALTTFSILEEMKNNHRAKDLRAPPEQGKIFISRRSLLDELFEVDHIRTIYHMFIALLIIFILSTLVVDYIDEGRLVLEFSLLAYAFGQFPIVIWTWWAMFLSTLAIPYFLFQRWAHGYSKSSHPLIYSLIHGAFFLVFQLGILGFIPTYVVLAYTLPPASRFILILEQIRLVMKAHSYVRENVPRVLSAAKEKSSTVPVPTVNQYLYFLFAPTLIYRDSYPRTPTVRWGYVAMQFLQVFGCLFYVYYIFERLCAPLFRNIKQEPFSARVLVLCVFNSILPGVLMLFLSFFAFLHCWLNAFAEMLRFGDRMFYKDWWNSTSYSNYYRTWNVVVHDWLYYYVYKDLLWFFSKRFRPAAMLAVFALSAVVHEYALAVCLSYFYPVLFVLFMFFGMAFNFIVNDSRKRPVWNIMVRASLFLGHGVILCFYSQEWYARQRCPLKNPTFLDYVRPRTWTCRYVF
# Assay: Inhibition of enzymatic esterification of cholesterol (ACAT), rat adrenal microsomal supernatant
# Assay type: biochemical
# Conditions: final concentration of the test compound 5.2 μg./ml., 14C-oleoyl CoA, 37° C., read-out: % INHIBITION (percent inhibition of the ACAT enzyme compared to control values)
# Experimental: The compounds of the present invention were tested for their ability to inhibit the enzymatic esterification of cholesterol according to the following procedure:
# Rat adrenals were homogenized in 0.2M monobasic potassium phosphate buffer, pH 7.4, and centrifuged at 1,000 times gravity for 15 minutes at 5° C. The supernatant, containing the microsomal fraction, served as the source of the cholesterol-esterifying enzyme, fatty acyl CoA:cholesterol acyl transferase (ACAT). A mixture comprising 50 parts of adrenal supernatant, 10 parts of albumin (BSA) (50 mg./ml.), 20 parts of oleoyl CoA (^14 C-0.4 μCi), 3 parts of test compound, and 500 parts of buffer was pre-incubated at 37° C. for 10 minutes. After treatment with 20 parts of oleoyl CoA (^14 C-0.4 μCi), the mixture was incubated at 37° C. for 10 minutes. A control mixture, omitting the test compound, was prepared and treated in the same manner. The lipids from the incubation mixture were extracted into an organic solvent and separated by thin-layer chromatography. The cholesterol ester fraction was counted in a scintillation counter. This procedure is a modification of that described by Hashimoto, et al., Life Scie., 12 (Part II), 1-12 (1973).
# The results of this test on representative compounds of this invention appear in Table I. The final concentration of the test compound was 5.2 μg./ml., and effectiveness of the compound is expressed as percent inhibition of the ACAT enzyme compared to control values.
row,inhibition at 5.2 µg/mL,SMILES
1,31%,"NC(=O)CC(c1ccc(Cl)cc1)c1ccc(Cl)cc1 [3,3-Bis(p-chlorophenyl)propionamide]"
2,85%,"CCOC(=O)CNC(=O)C=C(c1ccc(Cl)cc1)c1ccc(Cl)cc1 [Ethyl N-[3,3-bis(p-chlorophenyl)acryloyl]glycinate]"
3,48%,"CCCCN(CCCC)C(=O)CC(c1ccc(Cl)cc1)c1ccc(Cl)cc1 [N,N--Di-(n-butyl)-3,3-bis(p-chlorophenyl)propionamide]"
4,95%,"CCCCN(CCCC)C(=O)CC(c1ccc(OC)cc1)c1ccc(OC)cc1 [N,N--Di-(n-butyl)-3,3-bis(p-methoxyphenyl)propionamide]"
5,94%,"CCCCN(CCCC)C(=O)CC(c1ccc(C)cc1)c1ccc(C)cc1 [N,N--Di-(n-butyl)-3,3-bis(p-tolyl)propionamide]"
6,93%,"O=C(CC(c1ccc(Cl)cc1)c1ccc(Cl)cc1)N(Cc1ccccc1)Cc1ccccc1 [N,N--Dibenzyl-3,3-bis(p-chlorophenyl)propionamide]"
7,87%,"COc1ccc(C(CC(=O)N(Cc2ccccc2)Cc2ccccc2)c2ccc(OC)cc2)cc1 [N,N--Dibenzyl-3,3-bis(p-methoxyphenyl)propionamide]"
8,68%,"Cc1ccc(C(CC(=O)N(Cc2ccccc2)Cc2ccccc2)c2ccc(C)cc2)cc1 [N,N--Dibenzyl-3,3-bis(p-tolyl)propionamide]"
9,68%,"CN(C)C(=O)CC(c1ccc(Cl)cc1)c1ccc(Cl)cc1 [N,N--Dimethyl-3,3-bis(p-chlorophenyl)propionamide]"
10,97%,"O=C(CC(c1ccc(Cl)cc1)c1ccc(Cl)cc1)NC12CC3CC(CC(C3)C1)C2 [N--(1-Adamantyl)-3,3-bis(p-chlorophenyl)propionamide]"
11,89%,"COc1ccc(C(CC(=O)NC23CC4CC(CC(C4)C2)C3)c2ccc(OC)cc2)cc1 [N--(1-Adamantyl)-3,3-bis(p-methoxyphenyl)propionamide]"
12,76%,"Cc1ccc(C(CC(=O)NC23CC4CC(CC(C4)C2)C3)c2ccc(C)cc2)cc1 [N--(1-Adamantyl)-3,3-bis(p-tolyl)propionamide]"
13,92%,"CCCCNC(=O)CC(c1ccc(Cl)cc1)c1ccc(Cl)cc1 [N--(n-Butyl)-3,3-bis(p-chlorophenyl)propionamide]"
14,35%,"O=C(CC(c1ccc(Cl)cc1)c1ccc(Cl)cc1)NCc1ccccc1 [N--Benzyl-3,3-bis(p-chlorophenyl)propionamide]"
15,45%,"CCCCN(Cc1ccccc1)C(=O)CC(c1ccc(Cl)cc1)c1ccc(Cl)cc1 [N--Benzyl-N--(n-butyl)-3,3-bis(p-chlorophenyl)propionamide]"
16,78%,"COc1ccc(C(CC(=O)NCCc2ccc(OC)c(OC)c2)c2ccc(OC)cc2)cc1 [N--[2-(3,4-Dimethoxyphenyl)ethyl]-3,3-bis(p-methoxyphenyl)propionamide]"
